Assay results: US20160222014A1, “COMPOUNDS FOR REGULATING FAK AND/OR SRC PATHWAYS” (ASANA BIOSCIENCES, LLC, priority 2013, published 2016)

Tests used:
JAK2 = JAK2 (Homo sapiens, UniProt O60674); assay: JAK2 biochemical potency; settings: read-out: JAK2 HTRF IC50
Phospho Src(Y416) = target: T1, Phospho Src(Y416) (Homo sapiens, UniProt P12931); assay: Phospho Src(Y416) Sandwich ELISA; assay type: cell-based; settings: Panc1; read-out: pSrc EC50 (μM) Panc1
T1 construct: endogenous in cells; host or cells: Panc1
Procedure: E. Phospho Src(Y416) Sandwich ELISA
Phospho Src(Y416) Sandwich ELISA kit was obtained from Cell Signaling Tech.
(i) Reagent Preparation • 1. All microwell strips were brought to rt before use. • 2. 1× Wash Buffer was prepared by diluting 20× Wash Buffer (included in each PathScan® Sandwich ELISA Kit) in MilliQ® water or equivalently purified water. • 3. 1× Cell Lysis Buffer from CST #9803: 20 mM Tris (pH 7.5), 150 mM NaCl, 1 mM ethylene diamine tetraacetate (EDTA), 1 mM ethylene glycol-bis(2-aminoethyl)-N,N,N′,N′-tetraacetic acid (EGTA), 1% Triton™ X-100, 2.5 mM sodium pyrophosphate, 1 mM b-glycerophosphate, 1 mM Na3VO4, 1 μg/mL leupeptin. This buffer was stored at 4° C. for short-term use (1-2 weeks).
(ii) Preparing Cell Lysates • 1. The media was aspirated. The cells were treated by adding fresh media containing inhibitor for 1 h. The compound of Example 214 was used as reference. • 2. The cells were harvested under non-denaturing conditions by removing media and rinsing cells once with ice-cold PBS. • 3. PBS was removed, 0.5 mL ice-cold 1× Cell Lysis Buffer plus 1 mM phenylmethylsulfonylfluoride (PMSF) was added to each plate (10 cm in diameter) and the plate incubated on ice for 5 min. • 4. The cells were scraped off of the plate, transferred to an appropriate tube, and kept on ice. • 5. The lysates were sonicated on ice. • 6. Microcentrifugation was performed for 10 min at 4° C. and the supernatant transferred to a new tube. The supernatant was the cell lysate and was stored at −80° C. in single-use aliquots.
(iii) Test Procedure • 1. After the microwell strips reached rt, the required number of microwells were broken off. The microwells were placed in the strip holder. Unused microwells were resealed and stored at 4° C. immediately. • 2. 100 μL of Sample Diluent (supplied in each PathScan® Sandwich ELISA Kit, blue color) was added to a micro centrifuge tube. 100 μL of cell lysate was transferred into the tube and vortexed for a few seconds. […] Individual data sheets for each kit provided information regarding an appropriate dilution factor for lysates and kit assay results. However, dilution factors were titrated when specific cell lysates are used. • 3. 100 μL of each diluted cell lysate were added to the appropriate well. It was then sealed with tape and pressed firmly onto top of microwells. The plate was incubated for 2 h at 37° C. Alternatively, the plate was incubated overnight at 4° C., which gave the best detection of target protein. • 4. The tape was gently removed and the wells washed: • a. The plate contents were discarded into a receptacle. • b. Each well was washed 4 times with 1× Wash Buffer, 200 μL. • c. For each wash, plates were struck on fresh towels hard enough to remove the residual solution in each well, but wells were not allowed to completely dry at any time. • d. The underside of all wells was cleaned with a lint-free tissue. • 5. 100 μL of Detection Antibody (green color) was added to each well, sealed with tape and the plate incubated for 1 h at 37° C. • 6. The wash procedure was repeated as in Step 4. • 7. 100 μL of HRP-linked secondary antibody (red color) was added to each well, sealed with tape and the plate incubated plate for 30 min at 37° C. • 8. The wash procedure was repeated as in Step 4. • 9. 100 μL of TMB Substrate was added to each well, sealed with tape and the plate incubated for 10 min at 37° C. or 30 min at 25° C. • 10. 100 μL of STOP Solution was added to each well and shaken gently for a few seconds. Initial color of positive reaction was blue, which changed to yellow upon addition of STOP Solution. • 11. The results were read. • a. Visual Determination—read within 30 min after adding STOP Solution. • b. Spectrophotometric Determination—the underside of wells were wiped with a lint-free tissue and absorbance read at 450 nm within 30 min after adding STOP Solution.

recombinant human FAK1 = target: T2, recombinant human FAK1 (Homo sapiens, UniProt Q05397); assay: FAK1 HTRF assay; assay type: biochemical
T2 construct: fused on or other part: N-terminal 6xHis tag
In short: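 IC50 values derive from HTRF % inhibition (ratio 665/620 nm, Eu–anti-phosphotyrosine 0.1 nM, SA-APC 12 nM). The kinase step ran 45 min at room temperature, pairing 10 nM His-FAK1(692–end) from baculovirus with 0.5 μM gastrin Tyr87 biotin-peptide and a reagent at 10 μM final, pH 7.4. Compound dilutions began at 10 μM.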

T1 sequence (P12931 whole entry): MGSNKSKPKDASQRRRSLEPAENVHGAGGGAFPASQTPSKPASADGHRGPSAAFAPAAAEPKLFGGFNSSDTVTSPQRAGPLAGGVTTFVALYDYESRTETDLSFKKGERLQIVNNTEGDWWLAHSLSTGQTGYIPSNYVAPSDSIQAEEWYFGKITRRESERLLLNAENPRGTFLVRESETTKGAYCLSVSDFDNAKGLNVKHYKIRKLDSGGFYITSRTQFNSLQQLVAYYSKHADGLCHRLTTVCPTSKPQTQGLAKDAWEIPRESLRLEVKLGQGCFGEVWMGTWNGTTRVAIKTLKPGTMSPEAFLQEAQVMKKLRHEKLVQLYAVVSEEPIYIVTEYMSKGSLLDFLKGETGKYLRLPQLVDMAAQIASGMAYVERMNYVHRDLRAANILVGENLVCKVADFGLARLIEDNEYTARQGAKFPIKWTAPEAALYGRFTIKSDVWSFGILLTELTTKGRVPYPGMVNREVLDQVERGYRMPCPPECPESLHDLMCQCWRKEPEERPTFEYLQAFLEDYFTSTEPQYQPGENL
Sequence of JAK2 (O60674 whole entry, species assumed): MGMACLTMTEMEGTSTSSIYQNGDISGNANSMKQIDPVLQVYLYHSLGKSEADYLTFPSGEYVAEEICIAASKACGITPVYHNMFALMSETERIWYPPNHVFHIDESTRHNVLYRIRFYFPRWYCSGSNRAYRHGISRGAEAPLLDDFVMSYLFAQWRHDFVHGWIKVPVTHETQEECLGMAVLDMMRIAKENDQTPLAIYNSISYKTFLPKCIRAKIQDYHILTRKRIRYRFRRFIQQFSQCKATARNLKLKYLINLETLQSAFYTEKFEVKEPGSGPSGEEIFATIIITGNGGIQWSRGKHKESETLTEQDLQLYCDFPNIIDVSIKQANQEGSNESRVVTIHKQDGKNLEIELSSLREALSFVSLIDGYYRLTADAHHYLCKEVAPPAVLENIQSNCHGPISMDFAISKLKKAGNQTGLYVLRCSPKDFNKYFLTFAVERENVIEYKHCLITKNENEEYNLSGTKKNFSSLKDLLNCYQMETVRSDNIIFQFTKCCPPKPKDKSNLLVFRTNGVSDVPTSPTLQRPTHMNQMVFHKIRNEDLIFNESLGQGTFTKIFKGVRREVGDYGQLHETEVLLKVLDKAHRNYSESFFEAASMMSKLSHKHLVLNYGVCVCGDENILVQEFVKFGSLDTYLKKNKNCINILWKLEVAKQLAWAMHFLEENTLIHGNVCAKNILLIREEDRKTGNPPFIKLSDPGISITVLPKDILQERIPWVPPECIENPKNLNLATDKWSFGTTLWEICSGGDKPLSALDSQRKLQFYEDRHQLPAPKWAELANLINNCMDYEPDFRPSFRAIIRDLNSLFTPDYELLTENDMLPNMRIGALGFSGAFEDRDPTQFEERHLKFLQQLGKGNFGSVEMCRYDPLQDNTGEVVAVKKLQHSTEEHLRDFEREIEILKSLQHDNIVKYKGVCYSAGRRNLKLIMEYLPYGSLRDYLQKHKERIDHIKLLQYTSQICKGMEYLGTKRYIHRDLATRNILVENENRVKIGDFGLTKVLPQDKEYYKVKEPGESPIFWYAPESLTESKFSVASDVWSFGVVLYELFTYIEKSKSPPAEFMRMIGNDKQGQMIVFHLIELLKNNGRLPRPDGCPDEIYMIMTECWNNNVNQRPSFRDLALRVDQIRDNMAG
T2 sequence (Q05397 422-680 limits assumed): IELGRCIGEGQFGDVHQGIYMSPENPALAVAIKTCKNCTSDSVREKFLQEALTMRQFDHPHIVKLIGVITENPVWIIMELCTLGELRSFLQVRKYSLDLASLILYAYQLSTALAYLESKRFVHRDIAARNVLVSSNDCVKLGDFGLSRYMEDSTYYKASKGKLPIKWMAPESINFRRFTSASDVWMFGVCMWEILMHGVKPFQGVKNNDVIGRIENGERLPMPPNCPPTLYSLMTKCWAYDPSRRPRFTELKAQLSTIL

| Structure (SMILES) | IC50 (JAK2) | EC50 (Phospho Src(Y416)) | IC50 (recombinant human FAK1) |
| --- | --- | --- | --- |
| CN(c1ncccc1Cn1ncc2cnc(Nc3ccc4[nH]c(=O)[nH]c4c3)cc21)S(C)(=O)=O [Example 142] |  | > 1 µM | < 20 nM |
| CN(c1ncccc1Cn1ccc2cnc(Nc3ccc(NCCO)cc3)nc21)S(C)(=O)=O [Example 201] | < 20 nM | > 1 µM |  |
| CN(c1ncccc1Cn1ncc2cnc(Nc3ccc4c(c3)CCC(=O)N4)nc21)S(C)(=O)=O [Example 202] | < 20 nM | > 1 µM |  |
| O=C1CCc2cc(Nc3ncc4ccn(Cc5cccnc5N5CCCS5(=O)=O)c4n3)ccc2N1 [Example 216] |  |  | < 20 nM |
| Cn1cc(Nc2ncc3ccn(S(=O)(=O)c4cccc5cccnc45)c3n2)cn1 [Example 318] |  | > 1 µM | < 20 nM |
| COc1cc(N2CCNCC2)ccc1Nc1cc2c(ccn2S(=O)(=O)c2cccc3cccnc23)cn1 [Example 330, N-(2-Methoxy-4-(piperazin-1-yl)phenyl)-1-(quinolin-8-ylsulfonyl)-1H-pyrrolo[3,2-c]pyridin-6-amine] | > 1000 nM |  | < 20 nM |
| Cc1cc(Nc2ncc3cnn(S(=O)(=O)c4cccc5cccnc45)c3n2)ccc1N1CCNCC1 [Example 332] |  |  | < 20 nM |
| CN(c1ncccc1Cn1ccc2cnc(Nc3ccc(N4CCCC4CO)cc3)nc21)S(C)(=O)=O (centres unmarked) [Example 536] |  | > 1 µM | < 20 nM |

Continued, values first:

| IC50 (JAK2) | EC50 (Phospho Src(Y416)) | IC50 (recombinant human FAK1) | Structure (SMILES) |
| --- | --- | --- | --- |
| < 20 nM | > 1 µM |  | O=C1CCc2cc(Nc3ncc4cnn(Cc5ccccc5OC(F)F)c4n3)ccc2N1 [Example 21] |
| < 20 nM | > 1 µM |  | FC(F)Oc1ccccc1Cn1ccc2cnc(Nc3ccc4ncsc4c3)nc21 [Example 36] |
|  | > 1 µM |  | CC(=O)Nc1cccc(Nc2cc3c(cn2)cnn3Cc2ccccc2OC(F)F)c1 [Example 64] |
|  | > 1 µM |  | FC(F)Oc1ccccc1Cn1ncc2cnc(Nc3ccc4ncsc4c3)cc21 [Example 82] |
|  | > 1 µM | < 20 nM | O=C1CCc2cc(Nc3ncc4ccn(S(=O)(=O)c5cccc6cccnc56)c4n3)ccc2N1 [Example 169] |
| < 20 nM | > 1 µM | < 20 nM | O=S(=O)(c1cccc2nsnc12)n1ccc2cnc(Nc3ccc(N4CCNCC4)cc3)nc21 [Example 253] |
|  | > 1 µM |  | COc1ccccc1S(=O)(=O)n1ncc2cnc(Nc3ccc(N4CCNCC4)cc3)nc21 [Example 335] |
